From patent US20240122180A1, “FUNGICIDAL HALOMETHYL KETONES AND HYDRATES AND THEIR MIXTURES” (FMC Corporation, priority 2020, published 2024)
Marks after values point to notes of the source that are not given here.

Columns and labels:
Assay type in all cases: in vivo
[1] = test system: Puccinia recondita f. sp. tritici (the causal agent of wheat leaf rust); experiment: Test B: preventive spray on wheat seedlings, disease rating (100 = 100% control; * 50 ppm, ** 10 ppm, *** 250 ppm); conditions: 100 = 100% disease control
Procedure, shortened: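 Wheat seedlings sprayed to run-off with compound in acetone/water (50/50) containing 250 ppm PEG400, inoculated next day with Puccinia recondita f. sp. tritici spores. Held 24 h saturated at 20° C, then 6 days at 20° C; disease control rated 0–100 relative to controls.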

[2] = test system: Phakopsora pachyrhizi (the causal agent of Asian soybean rust); experiment: Test A: preventive spray on soybean seedlings, visual disease rating (100 = 100% control; * 50 ppm, ** 10 ppm, *** 250 ppm); conditions: 100 = 100% disease control
Procedure, shortened: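 Soybean seedlings sprayed to run-off with compound suspended in acetone/water with 250 ppm PEG400 surfactant, inoculated next day with P. pachyrhizi spores. Kept 24 h saturated at 22 °C, then 8 days at 22 °C before visual rating of disease control (0-100) relative to controls.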

[3] = test system: Zymoseptoria tritici (the causal agent of wheat leaf blotch); experiment: Test D: preventive spray on wheat seedlings, disease rating (100 = 100% control; * 50 ppm, ** 10 ppm, *** 250 ppm); conditions: 250 ppm test suspension, 100 = 100% disease control
Procedure, shortened: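 Compounds first dissolved in acetone (3% of final volume), then suspended in 50/50 acetone/water with 250 ppm PEG400 and sprayed to run-off on wheat seedlings; Z. tritici spores inoculated next day. Incubated saturated at 24° C. 48 h, then 20° C. 17 days; disease control rated 0–100 versus controls.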

[4] = test system: Blumeria graminis f. sp. tritici (the causal agent of wheat powdery mildew); experiment: Test E: preventive spray on wheat seedlings, visual disease rating (100 = 100% control; * 50 ppm, ** 10 ppm, *** 250 ppm); conditions: 250 ppm test suspension, 100 = 100% disease control
Procedure, shortened: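 Test suspension (3% acetone, acetone/water 50/50, 250 ppm PEG400) sprayed to run-off on wheat seedlings; inoculated next day with powdery mildew spore dust and kept 8 days at 20 °C. Visual rating, 100 = full and 0 = no control relative to untreated.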

[5] = test system: Uncinula necator (the causal agent of grape powdery mildew); experiment: Test C: preventive spray on grape seedlings, disease rating (100 = 100% control; * 50 ppm, ** 10 ppm, *** 250 ppm); conditions: 100 = 100% disease control
Excerpt: General protocol for preparing test suspensions for Tests A-E: the test compounds were first dissolved in acetone in an amount equal to 3% of the final volume and then suspended at the desired concentration (in ppm) in acetone and purified water (50/50 mix by volume) containing 250 ppm of the surfactant […] (polyhydric alcohol esters). The resulting test suspensions were then used in Tests A-E.
The test solution was sprayed to the point of run-off on grape seedlings. The following day the seedlings were inoculated with a spore suspension of Uncinula necator (the causal agent of grape powdery mildew) and incubated in a growth chamber at 20° C. for 12 days, after which time disease ratings were made.
Results for Tests A-E are given in Table A. In the Table, a rating of 100 indicates 100% disease control and a rating of 0 indicates no disease control (relative to the controls). An asterisk “*” or a double asterisk “**” or a triple asterisk “***” next to the rating value indicates a 50 ppm, 10 ppm and 250 ppm test suspension was used, respectively. A dash (-) indicates the compound was not tested.

[6] = 250 ppm test suspension, grape seedlings
[7] = 10 ppm test suspension, 0 = no control
[8] = 250 ppm test suspension, 0 = no control
[9] = 10 ppm test suspension, wheat seedlings
[10] = 10 ppm test suspension, soybean seedlings
[11] = 50 ppm test suspension, grape seedlings
[12] = 50 ppm test suspension, 0 = no control

Structure (SMILES)	Test D disease control rating ([3]; wheat seedlings)	Test E disease control rating ([4]; wheat seedlings)	Test C disease control rating [5, 6]	Test D disease control rating ([3]; 0 = no control)	Test E disease control rating ([4]; 0 = no control)	Test C disease control rating [5, 8]	Test B disease control rating [1, 9]	Test A disease control rating [2, 10]	other results
CCO/C(=C\Oc1ccc(Cn2cc(C(=O)NC(C)C)cn2)cc1)C(F)(F)F [compound 118]	13*** %	76*** %	77*** %	–	–	–	–	–	Test B disease control rating ([1]; 50 ppm test suspension, wheat seedlings): 0%; Test A disease control rating ([2]; 50 ppm test suspension, soybean seedlings): 100%
CCO/C(=C\Oc1ccc(Cn2cc(C(=O)NC)cn2)cc1)C(F)(F)F [compound 414]	–	–	–	97*** %	90*** %	91*** %	–	–	Test B disease control rating [1, 7]: 0%; Test A disease control rating [2, 7]: 45%
O=C(NCC(F)(F)F)c1cnc(Cc2ccc(OCC3(C(F)(F)F)OCCO3)cc2)o1 [compound 257]	–	–	–	35*** %	92*** %	81*** %	–	–	Test B disease control rating [1, 7]: 0%; Test A disease control rating [2, 7]: 54%
CC#CCOC(=O)c1cnn(Cc2ccc(O/C=C(\OCC)C(F)(F)F)cc2)c1 [compound 243]	0*** %	56*** %	29*** %	–	–	–	0%	100%	–
O=C(NCC1CC1)c1cnc(Cc2ccc(OCC(O)(O)C(F)(F)F)cc2)o1 [compound 247]	79*** %	21*** %	21*** %	–	–	–	0%	13%	–
CCOC(=O)c1cnn(Cc2ccc(SCC3(C(F)(F)F)OCCO3)cc2)c1 [compound 115]	19%	56%	58%	–	–	–	–	–	Test B disease control rating ([1]; 250 ppm test suspension, wheat seedlings): 0%; Test A disease control rating ([2]; 250 ppm test suspension, soybean seedlings): 0%
CCO/C(=C\Oc1ccc(Cn2cc(C(=O)OC)cn2)cc1)C(F)(F)F [compound 138]	31*** %	99*** %	–	–	–	–	0%	100%	Test C disease control rating [5, 11]: 100* %
C=CCOC(=O)c1cnn(Cc2ccc(O/C=C(\OCC)C(F)(F)F)cc2)c1 [compound 246]	12*** %	90*** %	85*** %	–	–	–	0%	100%	–
CCOC(=O)c1cnn(Cc2ccc(O/C=C(\OCC)C(F)(F)F)c(C#N)c2)c1 [compound 416]	–	–	–	0*** %	0*** %	34*** %	–	–	Test B disease control rating [1, 12]: 0%; Test A disease control rating [2, 12]: 81%
CCO/C(=C\Oc1ccc(Cn2cc(C(=O)OCCOC)cn2)cc1)C(F)(F)F [compound 222]	17*** %	90*** %	38*** %	–	–	–	0%	100%	–
CCO/C(=C\Oc1ccc(Cn2cc(C(=O)OCC(C)C)cn2)cc1)C(F)(F)F [compound 219]	0*** %	83*** %	92*** %	–	–	–	0%	100%	–
CCNC(=O)c1cnn(Cc2ccc(O/C=C(\OCC)C(F)(F)F)cc2)c1 [compound 437]	–	–	–	78*** %	69*** %	77*** %	–	–	Test B disease control rating [1, 12]: 0%; Test A disease control rating [2, 12]: 77%
CCO/C(=C\Oc1ccc(Cn2cc(C(=O)NCC(=O)OC)cn2)cc1)C(F)(F)F [compound 427]	–	–	–	53*** %	29*** %	5*** %	–	–	Test B disease control rating [1, 7]: 0%; Test A disease control rating [2, 7]: 13%
CCO/C(=C\Oc1ccc(Cn2cc(C(=O)OCC(C)=O)cn2)cc1)C(F)(F)F [compound 216]	37*** %	87*** %	20*** %	–	–	–	0%	100%	–
CCO/C(=C\Oc1cccc(Cn2cc(C(=O)NCC(F)(F)F)cn2)c1)C(F)(F)F [compound 401]	–	–	–	0*** %	0*** %	35*** %	–	–	Test B disease control rating [1, 7]: 0%; Test A disease control rating [2, 7]: 0%
CCS(=O)(=O)N1CC(c2ccc(OCC3(C(F)(F)F)OCCO3)cc2)C1 [compound 382]	–	–	–	4*** %	56*** %	22*** %	–	–	Test B disease control rating [1, 12]: 0%; Test A disease control rating [2, 12]: 0%
CCOC(=O)c1cnn(Cc2ccc(O/C=C(\OCC)C(F)(F)F)c(C)c2)c1 [compound 410]	–	–	–	11*** %	13*** %	88*** %	–	–	Test B disease control rating [1, 7]: 0%; Test A disease control rating [2, 7]: 100%
CCCOC(=O)c1cnn(Cc2ccc(O/C=C(\OCC)C(F)(F)F)cc2)c1 [compound 217]	23*** %	96*** %	75*** %	–	–	–	0%	100%	–
O=C(NCC1CC1)c1cnc(Cc2ccc(OCC3(C(F)(F)F)OCCO3)cc2)s1 [compound 259]	–	–	–	88*** %	83*** %	31*** %	–	–	Test B disease control rating [1, 7]: 0%; Test A disease control rating [2, 7]: 25%
O=C(NCC1CC1)c1cnc(Cc2ccc(OCC3(C(F)(F)F)OCCO3)cc2)o1 [compound 248]	93*** %	89*** %	62*** %	–	–	–	0%	71%	–
C#CCOC(=O)c1cnn(Cc2ccc(O/C=C(\OCC)C(F)(F)F)cc2)c1 [compound 185]	0*** %	95*** %	–	–	–	–	0%	100%	Test C disease control rating [5, 11]: 100* %
CCO/C(=C\Oc1cccc(Cn2cc(C(=O)NCC3CC3)cn2)c1)C(F)(F)F [compound 393]	–	–	–	69*** %	0*** %	63*** %	–	–	Test B disease control rating [1, 12]: 0%; Test A disease control rating [2, 12]: 38%
